Source: ChEMBL document CHEMBL4425114, “Development of Novel Alkoxyisoxazoles as Sigma-1 Receptor Antagonists with Antinociceptive Efficacy” (J Med Chem, 2016)
The source made the active and inactive calls. The rule behind the calls is not given here.

Experiments:
[1] = biological target: Sigma non-opioid intracellular receptor 1 (Rattus norvegicus) (UniProt Q9R0C9); experiment: Displacement of [3H]-pentazocine from rat brain sigma1 receptor at 10 uM by PDSP assay
[2] = biological target: Sigma non-opioid intracellular receptor 1 (Cavia porcellus) (UniProt Q60492); experiment: Binding affinity to sigma1 receptor form guinea pig brain membrane in presence of phenytoin […]
Chain of Sigma non-opioid intracellular receptor 1 (Cavia porcellus) (Q60492 whole entry): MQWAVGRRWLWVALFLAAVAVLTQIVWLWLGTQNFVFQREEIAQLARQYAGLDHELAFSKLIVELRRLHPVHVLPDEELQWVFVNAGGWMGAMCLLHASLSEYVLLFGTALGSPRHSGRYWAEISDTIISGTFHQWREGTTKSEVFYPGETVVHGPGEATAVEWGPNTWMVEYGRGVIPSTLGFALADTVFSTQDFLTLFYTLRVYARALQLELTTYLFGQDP

Mus musculus [3] = experiment: Antinociceptive activity in Kun Ming mouse assessed as reduction in paw licking and flinching time at 40 mg/kg, ip administered 15 mins prior to formalin challenge measured after 11 to 45 mins post formalin dosing relative to vehicle-treated control; format: functional, organism-based
[4] = Ratio of Cmax in brain to plasma of Kun Ming mouse at 40 mg/kg, po; format: ADME, organism-based
[5] = Elimination rate constant in Kun Ming mouse plasma at 40 mg/kg, po by LC-MS/MS analysis; format: ADME, organism-based
[6] = Toxicity in Kun Ming mouse assessed as decrease in rotarod latency at 40 and 80 mg/kg, ip measured after 60 to 120 mins by rotarod test relative to vehicle-treated control; format: organism-based; conditions: in vivo
[7] = AUC (0 to 8 hrs) in Kun Ming mouse brain at 40 mg/kg, po by LC-MS/MS analysis; format: ADME, organism-based; set-up: time < 8 hr, dose 40 mg/kg, route oral; conditions: in vivo
[8] = biological target: T1, Sodium-dependent dopamine transporter (Homo sapiens, UniProt Q01959)
T1 sequence (Q01959 whole entry): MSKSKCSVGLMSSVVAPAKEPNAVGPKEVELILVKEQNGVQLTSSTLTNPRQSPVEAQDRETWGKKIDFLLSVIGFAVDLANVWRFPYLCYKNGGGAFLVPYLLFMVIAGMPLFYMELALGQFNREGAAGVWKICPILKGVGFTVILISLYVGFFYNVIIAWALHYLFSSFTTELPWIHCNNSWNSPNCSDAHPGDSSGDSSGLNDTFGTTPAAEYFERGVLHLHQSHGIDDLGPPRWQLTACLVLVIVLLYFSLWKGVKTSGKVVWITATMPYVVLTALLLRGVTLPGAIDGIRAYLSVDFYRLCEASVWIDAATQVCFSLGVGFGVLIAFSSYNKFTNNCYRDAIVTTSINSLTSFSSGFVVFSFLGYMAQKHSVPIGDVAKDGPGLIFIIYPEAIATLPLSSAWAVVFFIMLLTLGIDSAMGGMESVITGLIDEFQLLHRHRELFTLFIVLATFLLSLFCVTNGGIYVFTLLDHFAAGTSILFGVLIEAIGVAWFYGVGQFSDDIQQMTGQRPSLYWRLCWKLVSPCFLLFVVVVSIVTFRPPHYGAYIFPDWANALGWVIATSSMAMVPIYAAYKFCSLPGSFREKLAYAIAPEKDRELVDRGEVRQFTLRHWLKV
Description: Displacement of [3H]-WIN35428 from human DAT expressed in HEK293 cells measured after 30 mins

[9] = biological target: Sodium-dependent noradrenaline transporter (Homo sapiens, UniProt P23975); experiment: Displacement of [3H]nisoxetine from human NET expressed in HEK293 cells measured after 30 mins; format: cell-based
Chain of Sodium-dependent noradrenaline transporter (P23975 whole entry): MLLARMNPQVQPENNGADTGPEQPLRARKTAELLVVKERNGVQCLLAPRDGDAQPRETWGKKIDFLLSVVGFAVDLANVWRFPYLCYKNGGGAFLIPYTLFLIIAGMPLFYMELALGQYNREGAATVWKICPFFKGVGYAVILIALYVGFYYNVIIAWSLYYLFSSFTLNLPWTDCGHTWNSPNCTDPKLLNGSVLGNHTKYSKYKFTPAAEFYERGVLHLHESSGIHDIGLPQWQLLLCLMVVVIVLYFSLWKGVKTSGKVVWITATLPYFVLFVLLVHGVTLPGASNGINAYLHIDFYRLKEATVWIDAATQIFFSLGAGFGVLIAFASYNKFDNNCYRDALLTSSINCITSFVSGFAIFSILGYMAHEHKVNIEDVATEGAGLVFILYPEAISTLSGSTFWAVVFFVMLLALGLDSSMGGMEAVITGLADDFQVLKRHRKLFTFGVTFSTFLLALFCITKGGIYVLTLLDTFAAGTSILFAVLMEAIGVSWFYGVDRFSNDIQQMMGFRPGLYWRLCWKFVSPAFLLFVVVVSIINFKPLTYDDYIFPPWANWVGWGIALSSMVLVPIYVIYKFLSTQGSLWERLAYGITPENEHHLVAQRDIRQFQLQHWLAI

[10] = biological target: T2, Sigma intracellular receptor 2 (Rattus norvegicus, UniProt Q5U3Y7); experiment: Displacement of [3H]DTG from rat brain sigma2 receptor by PDSP assay
T2 sequence (Q5U3Y7 whole entry): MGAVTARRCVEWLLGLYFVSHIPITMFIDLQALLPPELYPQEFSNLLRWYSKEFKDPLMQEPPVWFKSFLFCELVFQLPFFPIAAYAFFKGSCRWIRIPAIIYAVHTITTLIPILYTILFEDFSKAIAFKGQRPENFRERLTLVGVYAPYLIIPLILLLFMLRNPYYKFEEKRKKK

[11] = AUMC (0 to infinity) in Kun Ming mouse brain at 40 mg/kg, po by LC-MS/MS analysis; format: ADME, organism-based; conditions: in vivo
[12] = AUC (0 to infinity) in Kun Ming mouse plasma at 40 mg/kg, po by LC-MS/MS analysis; format: ADME, organism-based; set-up: dose 40 mg/kg, route oral, time infinity
[13] = Mean residence time in Kun Ming mouse plasma at 40 mg/kg, po by LC-MS/MS analysis; format: ADME, organism-based
[14] = AUMC (0 to 8 hrs) in Kun Ming mouse brain at 40 mg/kg, po by LC-MS/MS analysis; format: ADME, organism-based; conditions: in vivo
[15] = Ratio of AUC (0 to 8 hrs) in brain to plasma of Kun Ming mouse at 40 mg/kg, po; format: ADME, organism-based; conditions: read-out: Ratio AUC
[16] = Cmax in Kun Ming mouse brain at 40 mg/kg, po by LC-MS/MS analysis; format: ADME, organism-based; set-up: dose 40 mg/kg, route oral
Mus musculus [17] = experiment: Antinociceptive activity in Kun Ming mouse assessed as reduction in paw licking and flinching time at 40 mg/kg, ip administered 15 mins prior to formalin challenge measured after 0 to 10 mins post formalin dosing relative to vehicle-treated control; format: functional, organism-based
[18] = AUMC (0 to infinity) in Kun Ming mouse plasma at 40 mg/kg, po by LC-MS/MS analysis; format: ADME, organism-based; conditions: in vivo
[19] = Half life in Kun Ming mouse brain at 40 mg/kg, po by LC-MS/MS analysis; format: ADME, organism-based
Mus musculus [20] = experiment: Antinociceptive activity in Kun Ming mouse assessed as reduction in paw licking and flinching time at 80 mg/kg, ip administered 15 mins prior to formalin challenge measured up to 45 mins post formalin dosing relative to vehicle-treated control; format: functional, organism-based
[21] = Tmax in Kun Ming mouse plasma at 40 mg/kg, po by LC-MS/MS analysis; format: ADME, organism-based
[22] = Mean residence time in Kun Ming mouse brain at 40 mg/kg, po by LC-MS/MS analysis; format: ADME, organism-based
[23] = Elimination rate constant in Kun Ming mouse brain at 40 mg/kg, po by LC-MS/MS analysis; format: ADME, organism-based
[24] = Tmax in Kun Ming mouse brain at 40 mg/kg, po by LC-MS/MS analysis; format: ADME, organism-based
[25] = Permeability of the compound after 18 hrs by PAMPA assay; format: ADME; conditions: read-out: permeability
[26] = Half life in Kun Ming mouse plasma at 40 mg/kg, po by LC-MS/MS analysis; format: ADME, organism-based
[27] = Cmax in Kun Ming mouse plasma at 40 mg/kg, po by LC-MS/MS analysis; format: ADME, organism-based; set-up: dose 40 mg/kg, route oral
[28] = biological target: T3, Sodium-dependent serotonin transporter (Homo sapiens, UniProt P31645); conditions: HEK293, at 10 µM
Target sequence in this assay (P31645 whole entry, looked up): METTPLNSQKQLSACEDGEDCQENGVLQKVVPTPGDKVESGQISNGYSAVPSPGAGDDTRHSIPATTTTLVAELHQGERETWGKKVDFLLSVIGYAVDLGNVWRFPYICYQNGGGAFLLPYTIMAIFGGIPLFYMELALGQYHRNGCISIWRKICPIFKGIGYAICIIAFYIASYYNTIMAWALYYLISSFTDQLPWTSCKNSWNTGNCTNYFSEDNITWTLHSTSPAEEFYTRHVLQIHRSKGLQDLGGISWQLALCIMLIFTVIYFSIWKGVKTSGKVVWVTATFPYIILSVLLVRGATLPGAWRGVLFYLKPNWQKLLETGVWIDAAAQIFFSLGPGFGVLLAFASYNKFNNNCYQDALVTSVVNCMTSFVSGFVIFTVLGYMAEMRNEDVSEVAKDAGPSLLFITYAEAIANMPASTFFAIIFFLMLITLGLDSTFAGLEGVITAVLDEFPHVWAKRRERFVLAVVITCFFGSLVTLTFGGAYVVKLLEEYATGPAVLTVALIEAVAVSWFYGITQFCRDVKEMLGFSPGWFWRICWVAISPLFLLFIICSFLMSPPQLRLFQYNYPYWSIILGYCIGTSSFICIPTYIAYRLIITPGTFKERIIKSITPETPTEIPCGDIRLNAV
Description: Displacement of [3H]citalopram from human SERT expressed in HEK293 cells at 10 uM measured after 30 mins

[29] = biological target: T3, Sodium-dependent serotonin transporter; experiment: biochemical; format: cell-based, HEK293
Target sequence in this assay (P31645 whole entry): as the sequence (P31645 whole entry, looked up) above
Description: Displacement of [3H]citalopram from human SERT expressed in HEK293 cells measured after 30 mins

[30] = Ratio of AUC (0 to infinity) in brain to plasma of Kun Ming mouse at 40 mg/kg, po; format: ADME, organism-based; conditions: read-out: Ratio AUC
[31] = AUC (0 to 8 hrs) in Kun Ming mouse plasma at 40 mg/kg, po by LC-MS/MS analysis; format: ADME, organism-based; set-up: time < 8 hr, dose 40 mg/kg, route oral
[32] = AUMC (0 to 8 hrs) in Kun Ming mouse plasma at 40 mg/kg, po by LC-MS/MS analysis; format: ADME, organism-based; conditions: in vivo
[33] = biological target: Sigma non-opioid intracellular receptor 1 (Rattus norvegicus, UniProt Q9R0C9); experiment: Displacement of [3H]-pentazocine from rat brain sigma1 receptor by PDSP assay
Chain of Sigma non-opioid intracellular receptor 1 (Q9R0C9 whole entry): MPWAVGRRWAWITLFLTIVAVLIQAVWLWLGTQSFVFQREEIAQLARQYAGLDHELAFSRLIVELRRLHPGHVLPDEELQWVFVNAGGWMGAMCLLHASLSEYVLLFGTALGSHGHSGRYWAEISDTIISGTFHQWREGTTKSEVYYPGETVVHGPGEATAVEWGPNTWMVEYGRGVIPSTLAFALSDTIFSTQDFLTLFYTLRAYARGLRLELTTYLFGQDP

[34] = biological target: T1, Sodium-dependent dopamine transporter; experiment: Displacement of [3H]-WIN35428 from human DAT expressed in HEK293 cells at 10 uM measured after 30 mins; format: cell-based
[35] = AUC (0 to infinity) in Kun Ming mouse brain at 40 mg/kg, po by LC-MS/MS analysis; format: ADME, organism-based; set-up: dose 40 mg/kg, route oral, time infinity; conditions: in vivo

Chain of Sigma non-opioid intracellular receptor 1 (Rattus norvegicus) (Q9R0C9 whole entry): as above

CN(CCOc1cc(COc2ccccc2)on1)CC1CC1.Cl
inhibition [1]: > 50%
Activity [2]: inactive
Activity (Mus musculus [3]): Active
Kp [4]: 2
k el [5]: 7.31e-05 s⁻¹
Activity [6]: Non-Toxic
AUC [7]: 373 ng·h/g
Ki [8]: > 10000 nM
Ki [9]: > 10000 nM
Ki [10]: 225 nM
AUMC [11]: 935 hr.hr.ng/g
AUC(0-inf) [12]: 113 ng·h/mL
MRT [13]: 1.39 h
AUMC [14]: 578 hr.hr.ng/g
Kp [15]: 3.6
Cmax [16]: 395 ng/g
Activity (Mus musculus [17]): inactive
AUMC [18]: 157 hr.hr.ng/ml
half-life [19]: 2.52 h
Activity (Mus musculus [20]): Active
Tmax [21]: 0.167 h
MRT [22]: 2.32 h
k el [23]: 7.67e-05 s⁻¹
Tmax [24]: 0.167 h
Papp at 18 h [25]: 2 to 4 ×10⁻⁶ cm/s
half-life [26]: 2.64 h
Cmax [27]: 193 ng/mL
inhibition [28]: < 50%
Ki [29]: > 10000 nM
Kp [30]: 3.6
AUC(0-t) at 8 h [31]: 108 ng·h/mL
AUMC [32]: 91.5 hr.hr.ng/ml
Ki [33]: 0.8 nM
inhibition [34]: < 50%
AUC [35]: 403 ng·h/g
